Each structure is given as a SMILES string.

The test deals with T1, BRD4 BD2 (Homo sapiens, UniProt O60885, Y97A).
T1 construct: BRD4 (1-477) (Y97A) and (Y390A); made in house; host or cells: E. coli (pET15b vector)
In words: TR-FRET binding assay, BRD4 BD2 (BD1-mutated protein). The following applies: read-out: pIC50 in the BRD4 BD2 assay (converted). The gist of the method: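 Displacement of Alexa Fluor647-labelled bromodomain ligand (at Kd) from 10 nM His-tagged BRD4 (1-477, Y97A) read by Eu-anti-His TR-FRET (665/615 ratio) in pH 7.4 HEPES buffer, 0.5% DMSO. Compound preincubated 30 min at rt, detection ≥30 min. pIC50 derived from four-parameter fit after normalisation to controls.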
Consider `CC(=O)N1c2ccc(C(=O)NC3COC3)cc2[C@H](Nc2ncccn2)[C@@H](C)[C@@H]1C1CC1` [Example 488, (2S,3R,4R)-1-acetyl-2-cyclopropyl-3-methyl-N-(oxetan-3-yl)-4-(pyrimidin-2-ylamino)-1,2,3,4-tetrahydroquinoline-6-carboxamide], for which the IC50 is 100 nM.

Take `COCCNC(=O)c1ccc2c(c1)[C@H](Nc1ncccn1)[C@@H](C)[C@H](C1CC1)N2C(C)=O` [Example 489, (2S,3R,4R)-1-acetyl-2-cyclopropyl-N-(2-methoxyethyl)-3-methyl-4-(pyrimidin-2-ylamino)-1,2,3,4-tetrahydroquinoline-6-carboxamide]: the IC50 was 100 nM. As for `CC(=O)N1c2ccc(C(=O)NCCO)cc2[C@H](Nc2ccc(C#N)cc2)[C@@H](C)[C@@H]1C1CC1` [Example 492, (2S,3R,4R)-1-acetyl-4-((4-cyanophenyl)amino)-2-cyclopropyl-N-(2-hydroxyethyl)-3-methyl-1,2,3,4-tetrahydroquinoline-6-carboxamide], the figure is 100 nM; as for `CC(=O)N1c2ccc(C(=O)NC(CO)CO)cc2[C@H](Nc2ccc(C#N)cc2)[C@@H](C)[C@@H]1C1CC1` [Example 493, (2S,3R,4R)-1-acetyl-4-((4-cyanophenyl)amino)-2-cyclopropyl-N-(1,3-dihydroxypropan-2-yl)-3-methyl-1,2,3,4-tetrahydroquinoline-6-carboxamide], 100 nM. Consider `CC(=O)N1c2ccc(F)cc2[C@H](Nc2ncccn2)[C@@H](C)[C@@H]1C` [Example 501, 1-((2S,3R,4R)-6-fluoro-2,3-dimethyl-4-(pyrimidin-2-ylamino)-3,4-dihydroquinolin-1(2H)-yl)ethanone], for which the IC50 is 100 nM.

For the compound `CC(=O)N1c2ccc(F)cc2[C@H](Nc2cccnc2C#N)[C@@H](C)[C@@H]1C1CC1` [Example 503, 3-(((2S,3R,4R)-1-acetyl-2-cyclopropyl-6-fluoro-3-methyl-1,2,3,4-tetrahydroquinolin-4-yl)amino)picolinonitrile], the IC50 is 1000 to 100000 nM. On to `CC(=O)N1c2ccc(F)cc2[C@H](Nc2ncccc2C#N)[C@@H](C)[C@@H]1C` [Example 504, 2-(((2S,3R,4R)-1-acetyl-6-fluoro-2,3-dimethyl-1,2,3,4-tetrahydroquinolin-4-yl)amino)nicotinonitrile], for which the IC50 was 100 nM. On to `CNC(=O)c1ccc(N[C@H]2c3cc(F)ccc3N(C(C)=O)[C@@H](C)[C@@H]2C)cc1` [Example 506, 4-(((2S,3R,4R)-1-acetyl-6-fluoro-2,3-dimethyl-1,2,3,4-tetrahydroquinolin-4-yl)amino)-N-methylbenzamide], for which the IC50 was 100 nM. `COc1ncccc1N[C@H]1c2cc(F)ccc2N(C(C)=O)[C@@H](C)[C@@H]1C` [Example 509, 1-((2S,3R,4R)-6-fluoro-4-((2-methoxypyridin-3-yl)amino)-2,3-dimethyl-3,4-dihydroquinolin-1(2H)-yl)ethanone]: the IC50 is 100 nM. As for `CC(=O)N1c2ccc(F)cc2[C@H](Nc2ccnc(O)n2)[C@@H](C)[C@@H]1C` [Example 517, 1-((2S,3R,4R)-6-fluoro-4-((2-hydroxypyrimidin-4-yl)amino)-2,3-dimethyl-3,4-dihydroquinolin-1(2H)-yl)ethanone], the figure is 1000 to 100000 nM; as for `CC(=O)N1c2ccc(F)cc2[C@H](Nc2cccnc2O)[C@@H](C)[C@@H]1C` [Example 518, 1-((2S,3R,4R)-6-fluoro-4-((2-hydroxypyridin-3-yl)amino)-2,3-dimethyl-3,4-dihydroquinolin-1(2H)-yl)ethanone], 100 nM. Under `CC(=O)N1c2ccc(F)cc2[C@H](Nc2ccnc(O)n2)[C@@H](C)[C@@H]1C1CC1` [Example 519, 1-((2S,3R,4R)-2-cyclopropyl-6-fluoro-4-((2-hydroxypyrimidin-4-yl)amino)-3-methyl-3,4-dihydroquinolin-1(2H)-yl)ethanone] stands 1000 to 100000 nM.

As to `CC(=O)N1c2ccc(F)cc2[C@H](Nc2ccc(C(N)=O)cn2)[C@@H](C)[C@@H]1C1CC1` [Example 522, 6-(((2S,3R,4R)-1-acetyl-2-cyclopropyl-6-fluoro-3-methyl-1,2,3,4-tetrahydroquinolin-4-yl)amino)nicotinamide], the IC50 is 1000 to 100000 nM. Under `CC(=O)N1c2ccc(F)cc2[C@H](Nc2ncccc2C(N)=O)[C@@H](C)[C@@H]1C1CC1` [Example 523, 2-(((2S,3R,4R)-1-acetyl-2-cyclopropyl-6-fluoro-3-methyl-1,2,3,4-tetrahydroquinolin-4-yl)amino)nicotinamide] stands 100 nM; under `CC(=O)N1c2ccc(F)cc2[C@H](Nc2ncccc2C(N)=O)[C@@H](C)[C@@H]1C` [Example 527, 2-(((2S,3R,4R)-1-acetyl-6-fluoro-2,3-dimethyl-1,2,3,4-tetrahydroquinolin-4-yl)amino)nicotinamide], 100 nM. Under `CC(=O)N1c2ccc(F)cc2[C@H](Nc2nc(C)ccc2C(N)=O)[C@@H](C)[C@@H]1C` [Example 528, 2-(((2S,3R,4R)-1-acetyl-6-fluoro-2,3-dimethyl-1,2,3,4-tetrahydroquinolin-4-yl)amino)-6-methylnicotinamide] stands 100 nM; under `CC(=O)N1c2ccc(F)cc2[C@H](Nc2ccnc(O)c2)[C@@H](C)[C@@H]1C1CC1` [Example 531, 1-((2S,3R,4R)-2-cyclopropyl-6-fluoro-4-((2-hydroxypyridin-4-yl)amino)-3-methyl-3,4-dihydroquinolin-1(2H)-yl)ethanone], 1000 to 100000 nM; under `CC(=O)N1c2ccc(F)cc2[C@H](Nc2cc(O)ccn2)[C@@H](C)[C@@H]1C1CC1` [Example 532, 1-((2S,3R,4R)-2-cyclopropyl-6-fluoro-4-((4-hydroxypyridin-2-yl)amino)-3-methyl-3,4-dihydroquinolin-1(2H)-yl)ethanone], 1000 to 100000 nM. As for `CC(=O)N1c2ccc(F)cc2[C@H](Nc2ccc(O)nc2)[C@@H](C)[C@@H]1C1CC1` [Example 533, 1-((2S,3R,4R)-2-cyclopropyl-6-fluoro-4-((6-hydroxypyridin-3-yl)amino)-3-methyl-3,4-dihydroquinolin-1(2H)-yl)ethanone], the figure is 1000 to 100000 nM; as for `CC(=O)N1c2ccc(C3=CCOCC3)cc2[C@H](Nc2ncccn2)[C@@H](C)[C@@H]1C1CC1` [Example 555, 1-((2S,3R,4R)-2-cyclopropyl-6-(3,6-dihydro-2H-pyran-4-yl)-3-methyl-4-(pyrimidin-2-ylamino)-3,4-dihydroquinolin-1(2H)-yl)ethanone], 100 nM.

For the compound `COCCn1cc(-c2ccc3c(c2)[C@H](Nc2nccc(C)n2)[C@@H](C)[C@H](C2CC2)N3C(C)=O)cn1` [Example 557, 1-((2S,3R,4R)-2-cyclopropyl-6-(1-(2-methoxyethyl)-1H-pyrazol-4-yl)-3-methyl-4-((4-methylpyrimidin-2-yl)amino)-3,4-dihydroquinolin-1(2H)-yl)ethanone], the IC50 is 100 nM.

With `CC(=O)N1c2ccc(N3CCNCC3)cc2[C@H](Nc2ccc(C(N)=O)cc2)[C@@H](C)[C@@H]1C` [Example 571, 4-(((2S,3R,4R)-1-acetyl-2,3-dimethyl-6-(piperazin-1-yl)-1,2,3,4-tetrahydroquinolin-4-yl)amino)benzamide], the IC50 is 100 nM. Consider `CC(=O)N1c2ccc(-c3cn[nH]c3)cc2[C@H](Nc2ncccn2)[C@@H](C)[C@@H]1C1CC1` [Example 581, 1-((2S,3R,4R)-2-cyclopropyyl-3-methyl-6-(1H-pyrazol-4-yl)-4-(pyrimidin-2-ylamino)-3,4-dihydroquinolin-1(2H)-yl)ethanone], for which the IC50 was 100 nM. In the case of `CC(=O)N1c2ccc(-c3cn[nH]c3)cc2[C@H](Nc2nccc(C)n2)[C@@H](C)[C@@H]1C1CC1` [Example 582, 1-((2S,3R,4R)-2-cyclopropyl-3-methyl-4-((4-methylpyrimidin-2-yl)amino)-6-(1H-pyrazol-4-yl)-3,4-dihydroquinolin-1(2H)-yl)ethanone], the IC50 is 100 nM. Under `CC(=O)N1c2ccc(-c3ncc[nH]3)cc2[C@H](Nc2ncccn2)[C@@H](C)[C@@H]1C1CC1` [Example 588, 1-((2S,3R,4R)-2-cyclopropyl-6-(1H-imidazol-2-yl)-3-methyl-4-(pyrimidin-2-ylamino)-3,4-dihydroquinolin-1(2H)-yl)ethanone] stands 100 nM.

On to `CC(=O)N1c2ccc(-c3nnc(C)s3)cc2[C@H](Nc2ncccn2)[C@@H](C)[C@@H]1C1CC1` [Example 590, 1-((2S,3R,4R)-2-cyclopropyl-3-methyl-6-(5-methyl-1,3,4-thiadiazol-2-yl)-4-(pyrimidin-2-ylamino)-3,4-dihydroquinolin-1(2H)-yl)ethanone], for which the IC50 was 100 nM.

The values above are taken from patent US11478478B2, “2,3-disubstituted 1-acyl-4-amino-1,2,3,4-tetrahydroquinoline derivatives and their use as bromodomain inhibitors” (GLAXOSMITHKLINE INTELLECTUAL PROPERTY (NO.2) LIMITED, priority 2013, dated 2022).
